What was measured:
Test in all cases: 33PanQinase panel
Format in all cases: biochemical
PAK2 = target: T1, PAK2 (Homo sapiens, UniProt Q13177); conditions: PAK2, 1 µM; read-out: Residual Activity (%)
T1 construct: purchased ProQinase
In short: (§1)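 Residual activity (%) relative to DMSO control was measured by radiometric 33P-based kinase activity assay with inhibitor at 1 µM and 1% final DMSO, across 320 wild-type kinases.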

EPHB1 = target: T2, EPHB1 (Homo sapiens, UniProt P54762); conditions: EPHB1, 1 µM; read-out: Residual Activity (%)
T2 construct: purchased ProQinase
In short: as §1

FGF-R4 = target: T3, FGF-R4 (Homo sapiens, UniProt P22455); conditions: FGF-R4, 1 µM; read-out: Residual Activity (%)
T3 construct: purchased ProQinase
In short: as §1

DAPK1 = target: T4, DAPK1 (Homo sapiens, UniProt P53355); conditions: DAPK1, 1 µM; read-out: Residual Activity (%)
T4 construct: purchased ProQinase
In short: as §1

HIPK4 = target: T5, HIPK4 (Homo sapiens, UniProt Q8NE63); conditions: HIPK4, 1 µM; read-out: Residual Activity (%)
T5 construct: purchased ProQinase
In short: as §1

p38-alpha = target: T6, p38-alpha (Homo sapiens, UniProt Q16539); conditions: read-out: Residual Activity (%)
T6 construct: purchased ProQinase
Protocol: (§2) Figure 5 Dendrogram representation of the selectivity profile of 29d at a concentration of 1 μM in a panel of 320 wild-type kinases (ProQinase, Freiburg, Germany). The residual kinase activity was determined compared to DMSO control. Images were generated using TREEspot Software Tool, DISCOVERX CORPORATION 2010.
(§3) Figure S1. X-ray crystal structure of intermediate compound 25d (ORTEP drawing with ellipsoids at 30% probability). CCDC 1589043 contains the supplementary crystallographic data for this paper. The data can be obtained free of charge from The Cambridge Crystallographic Data Centre via www.ccdc.cam.ac.uk/structures.
(§4) Table S1 Data collection, structure refinement and Ramachrandran plot results of protein crystallization of CK1δ in complex with compound 30a and 30b, respectively.
(§5) Root-mean-square deviations
(§6) Additionally allowed 2.6 2.2
(§7) Table S2. Selectivity profile of compound 29d. The inhibitor has been screened at a concentration of 1 µM over a panel of 320 wild-type protein kinases by ProQinase GmbH (Freiburg, Germany) using an activity-based radiometric 33PanQinase® assay. Results are presented as percentage of residual kinase activity relative to […]
(§8) control. The final DMSO concentration was 1 % in each reaction-mix. Classification of protein kinase families refers to Manning et al. (Manning, G.; Whyte, D. B.; Martinez, R.; Hunter, T.; Sudarsanam, S. The Protein Kinase Complement of the Human Genome. Science 2002, 298, 1912–1934): AGC = containing PKA, PKG, PKC families; […] = containing Cdk, MAPK, GSK3, CLK families; STE = homologs of yeast sterile 7, sterile 11, sterile 20 kinases; TK = tyrosine kinase; TKL = tyrosine kinase-like.
(§9) Kinase name Kinase family Residual Activity (%)

NEK6 = target: T7, NEK6 (Homo sapiens, UniProt Q9HC98); conditions: NEK6, 1 µM; read-out: Residual Activity (%)
T7 construct: purchased ProQinase
Protocol: as §2, §3, §4, §5, §6, §7, §8, §9

TSF1 = target: T8, TSF1 (Homo sapiens, UniProt O75716); conditions: TSF1, 1 µM; read-out: Residual Activity (%)
T8 construct: purchased ProQinase
Protocol: as §2, §3, §4, §5, §6, §7, §8, §9

CDK4/CycD1 = target: T9, CDK4/CycD1 (Homo sapiens, UniProt P11802); conditions: CDK4/CycD1, 1 µM; read-out: Residual Activity (%)
T9 construct: purchased ProQinase
Protocol: as §2, §3, §4, §5, §6, §7, §8, §9

DMPK = target: T10, DMPK (Homo sapiens, UniProt Q09013); conditions: read-out: Residual Activity (%)
T10 construct: purchased ProQinase
Protocol: as §2, §3, §4, §5, §6, §7, §8, §9

MYLK3 = target: T11, MYLK3 (Homo sapiens, UniProt Q32MK0); conditions: MYLK3, 1 µM; read-out: Residual Activity (%)
T11 construct: purchased ProQinase
Protocol: as §2, §3, §4, §5, §6, §7, §8, §9

INSR-R = target: T12, INSR-R (Homo sapiens, UniProt P14616); conditions: read-out: Residual Activity (%)
T12 construct: purchased ProQinase
Protocol: as §2, §3, §4, §5, §6, §7, §8, §9

NEK3 = target: T13, NEK3 (Homo sapiens, UniProt P51956); conditions: NEK3, 1 µM; read-out: Residual Activity (%)
T13 construct: purchased ProQinase
Protocol: as §2, §3, §4, §5, §6, §7, §8, §9

TNK1 = target: T14, TNK1 (Homo sapiens, UniProt Q13470); conditions: TNK1, 1 µM; read-out: Residual Activity (%)
T14 construct: purchased ProQinase
Protocol: as §2, §3, §4, §5, §6, §7, §8, §9

MAP3K11 = target: T15, MAP3K11 (Homo sapiens, UniProt Q16584); conditions: MAP3K11, 1 µM; read-out: Residual Activity (%)
T15 construct: purchased ProQinase
Protocol: as §2, §3, §4, §5, §6, §7, §8, §9

PRKG1 = target: T16, PRKG1 (Homo sapiens, UniProt Q13976); conditions: PRKG1, 1 µM; read-out: Residual Activity (%)
T16 construct: purchased ProQinase
Protocol: as §2, §3, §4, §5, §6, §7, §8, §9

MEKK3 = target: T17, MEKK3 (Homo sapiens, UniProt Q99759); conditions: MEKK3, 1 µM; read-out: Residual Activity (%)
T17 construct: purchased ProQinase
Protocol: as §2, §3, §4, §5, §6, §7, §8, §9

FAK aa2-1052 = target: T18, FAK aa2-1052 (Homo sapiens, UniProt Q05397); conditions: FAK aa2-1052, 1 µM; read-out: Residual Activity (%)
T18 construct: purchased ProQinase
Protocol: as §2, §3, §4, §5, §6, §7, §8, §9

EPHB2 = target: T19, EPHB2 (Homo sapiens, UniProt P29323); conditions: EPHB2, 1 µM; read-out: Residual Activity (%)
T19 construct: purchased ProQinase
Protocol: as §2, §3, §4, §5, §6, §7, §8, §9

CAMK1D = target: T20, CAMK1D (Homo sapiens, UniProt Q8IU85); conditions: read-out: Residual Activity (%)
T20 construct: purchased ProQinase
Protocol: as §2, §3, §4, §5, §6, §7, §8, §9

EPHA1 = target: T21, EPHA1 (Homo sapiens, UniProt P21709); conditions: EPHA1, 1 µM; read-out: Residual Activity (%)
T21 construct: purchased ProQinase
Protocol: as §2, §3, §4, §5, §6, §7, §8, §9

S6K-beta = target: T22, S6K-beta (Homo sapiens, UniProt Q9UBS0); conditions: read-out: Residual Activity (%)
T22 construct: purchased ProQinase
Protocol: as §2, §3, §4, §5, §6, §7, §8, §9

TRK-B = target: T23, TRK-B (Homo sapiens, UniProt Q16620); conditions: read-out: Residual Activity (%)
T23 construct: purchased ProQinase
Protocol: as §2, §3, §4, §5, §6, §7, §8, §9

SRC (GST-HIS-tag) = target: T24, SRC (GST-HIS-tag) (Homo sapiens, UniProt P12931); conditions: read-out: Residual Activity (%)
T24 construct: purchased ProQinase
Protocol: as §2, §3, §4, §5, §6, §7, §8, §9

COT = target: T25, COT (Homo sapiens, UniProt P41279); conditions: read-out: Residual Activity (%)
T25 construct: purchased ProQinase
Protocol: as §2, §3, §4, §5, §6, §7, §8, §9

T6 sequence (Q16539 whole entry): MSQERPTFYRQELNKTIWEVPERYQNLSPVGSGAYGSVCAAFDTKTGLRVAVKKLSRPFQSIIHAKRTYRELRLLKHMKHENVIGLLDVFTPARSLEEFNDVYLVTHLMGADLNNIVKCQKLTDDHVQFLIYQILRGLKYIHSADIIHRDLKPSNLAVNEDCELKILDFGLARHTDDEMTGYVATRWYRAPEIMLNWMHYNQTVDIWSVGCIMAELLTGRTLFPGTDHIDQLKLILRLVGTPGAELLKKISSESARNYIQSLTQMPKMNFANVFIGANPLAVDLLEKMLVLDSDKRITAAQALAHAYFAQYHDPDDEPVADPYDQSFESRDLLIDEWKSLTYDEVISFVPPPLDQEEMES
T10 sequence (Q09013 whole entry): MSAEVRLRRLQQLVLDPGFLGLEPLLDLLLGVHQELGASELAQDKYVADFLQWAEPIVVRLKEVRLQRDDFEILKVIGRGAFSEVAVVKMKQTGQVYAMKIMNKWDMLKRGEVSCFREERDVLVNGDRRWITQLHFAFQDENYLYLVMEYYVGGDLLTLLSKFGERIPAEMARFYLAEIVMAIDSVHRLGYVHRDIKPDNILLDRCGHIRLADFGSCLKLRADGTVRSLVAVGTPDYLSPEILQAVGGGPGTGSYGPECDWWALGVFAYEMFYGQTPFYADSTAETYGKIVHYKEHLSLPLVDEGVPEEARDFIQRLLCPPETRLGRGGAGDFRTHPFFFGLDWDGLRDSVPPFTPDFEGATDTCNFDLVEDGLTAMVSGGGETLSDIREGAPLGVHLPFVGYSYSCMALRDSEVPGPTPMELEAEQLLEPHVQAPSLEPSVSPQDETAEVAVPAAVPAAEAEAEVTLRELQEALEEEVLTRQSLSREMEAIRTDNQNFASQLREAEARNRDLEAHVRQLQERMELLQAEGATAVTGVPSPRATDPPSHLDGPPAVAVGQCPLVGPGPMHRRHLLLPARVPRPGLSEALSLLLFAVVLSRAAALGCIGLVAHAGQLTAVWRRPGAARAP
T16 sequence (Q13976 whole entry): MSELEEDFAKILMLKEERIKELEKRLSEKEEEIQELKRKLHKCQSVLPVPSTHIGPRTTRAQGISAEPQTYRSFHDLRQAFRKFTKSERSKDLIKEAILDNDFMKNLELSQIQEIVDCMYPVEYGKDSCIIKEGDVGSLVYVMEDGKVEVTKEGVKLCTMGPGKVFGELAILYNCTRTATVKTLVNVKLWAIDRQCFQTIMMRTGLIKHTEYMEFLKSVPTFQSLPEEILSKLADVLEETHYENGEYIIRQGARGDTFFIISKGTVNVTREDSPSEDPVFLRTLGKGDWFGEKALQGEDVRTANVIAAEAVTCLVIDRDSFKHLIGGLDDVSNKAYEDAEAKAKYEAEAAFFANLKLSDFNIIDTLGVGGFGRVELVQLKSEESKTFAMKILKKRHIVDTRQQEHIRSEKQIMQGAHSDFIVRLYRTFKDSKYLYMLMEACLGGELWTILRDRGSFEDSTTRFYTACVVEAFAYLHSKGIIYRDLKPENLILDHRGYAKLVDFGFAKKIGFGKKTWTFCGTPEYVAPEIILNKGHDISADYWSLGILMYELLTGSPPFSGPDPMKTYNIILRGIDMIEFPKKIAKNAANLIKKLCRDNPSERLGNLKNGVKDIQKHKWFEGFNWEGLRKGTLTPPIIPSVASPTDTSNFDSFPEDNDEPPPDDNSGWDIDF
T14 sequence (Q13470 whole entry): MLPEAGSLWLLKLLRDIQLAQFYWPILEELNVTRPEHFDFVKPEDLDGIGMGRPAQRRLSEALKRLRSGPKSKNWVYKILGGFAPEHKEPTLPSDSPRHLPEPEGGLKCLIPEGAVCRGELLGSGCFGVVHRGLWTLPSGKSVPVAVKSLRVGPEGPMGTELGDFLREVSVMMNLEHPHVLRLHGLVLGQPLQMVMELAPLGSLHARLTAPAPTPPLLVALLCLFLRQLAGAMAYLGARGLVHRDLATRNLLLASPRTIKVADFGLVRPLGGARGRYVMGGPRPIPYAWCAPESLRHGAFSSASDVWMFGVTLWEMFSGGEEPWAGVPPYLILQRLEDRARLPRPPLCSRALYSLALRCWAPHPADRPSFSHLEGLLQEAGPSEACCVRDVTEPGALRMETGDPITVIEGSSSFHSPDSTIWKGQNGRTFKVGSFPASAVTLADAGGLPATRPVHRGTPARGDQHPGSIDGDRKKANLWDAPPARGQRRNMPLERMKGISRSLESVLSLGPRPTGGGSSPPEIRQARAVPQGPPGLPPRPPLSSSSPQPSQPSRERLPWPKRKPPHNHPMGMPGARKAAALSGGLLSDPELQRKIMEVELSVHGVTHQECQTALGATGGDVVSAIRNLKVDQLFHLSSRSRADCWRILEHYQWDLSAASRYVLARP
T3 sequence (P22455 22-802): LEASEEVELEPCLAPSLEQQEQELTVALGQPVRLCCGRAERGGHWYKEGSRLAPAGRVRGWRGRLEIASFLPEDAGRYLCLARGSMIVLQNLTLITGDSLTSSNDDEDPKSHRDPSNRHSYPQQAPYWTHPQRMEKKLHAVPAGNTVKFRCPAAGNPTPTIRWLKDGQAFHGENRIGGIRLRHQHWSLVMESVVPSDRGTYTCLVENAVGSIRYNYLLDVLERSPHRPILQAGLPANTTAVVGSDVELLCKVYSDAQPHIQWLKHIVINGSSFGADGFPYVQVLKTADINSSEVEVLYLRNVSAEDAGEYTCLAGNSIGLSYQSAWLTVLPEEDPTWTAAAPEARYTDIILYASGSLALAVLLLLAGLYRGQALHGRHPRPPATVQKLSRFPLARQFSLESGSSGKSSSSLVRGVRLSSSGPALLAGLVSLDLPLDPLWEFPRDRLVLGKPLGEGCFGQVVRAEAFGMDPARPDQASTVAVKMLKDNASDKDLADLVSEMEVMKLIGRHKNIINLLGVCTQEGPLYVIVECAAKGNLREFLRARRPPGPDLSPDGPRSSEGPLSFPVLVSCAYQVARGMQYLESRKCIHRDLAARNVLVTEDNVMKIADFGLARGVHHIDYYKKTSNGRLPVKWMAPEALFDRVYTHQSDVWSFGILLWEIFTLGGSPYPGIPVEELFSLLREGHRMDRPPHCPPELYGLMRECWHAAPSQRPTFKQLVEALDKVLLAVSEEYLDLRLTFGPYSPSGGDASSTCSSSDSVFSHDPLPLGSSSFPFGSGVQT
T4 sequence (P53355 whole entry): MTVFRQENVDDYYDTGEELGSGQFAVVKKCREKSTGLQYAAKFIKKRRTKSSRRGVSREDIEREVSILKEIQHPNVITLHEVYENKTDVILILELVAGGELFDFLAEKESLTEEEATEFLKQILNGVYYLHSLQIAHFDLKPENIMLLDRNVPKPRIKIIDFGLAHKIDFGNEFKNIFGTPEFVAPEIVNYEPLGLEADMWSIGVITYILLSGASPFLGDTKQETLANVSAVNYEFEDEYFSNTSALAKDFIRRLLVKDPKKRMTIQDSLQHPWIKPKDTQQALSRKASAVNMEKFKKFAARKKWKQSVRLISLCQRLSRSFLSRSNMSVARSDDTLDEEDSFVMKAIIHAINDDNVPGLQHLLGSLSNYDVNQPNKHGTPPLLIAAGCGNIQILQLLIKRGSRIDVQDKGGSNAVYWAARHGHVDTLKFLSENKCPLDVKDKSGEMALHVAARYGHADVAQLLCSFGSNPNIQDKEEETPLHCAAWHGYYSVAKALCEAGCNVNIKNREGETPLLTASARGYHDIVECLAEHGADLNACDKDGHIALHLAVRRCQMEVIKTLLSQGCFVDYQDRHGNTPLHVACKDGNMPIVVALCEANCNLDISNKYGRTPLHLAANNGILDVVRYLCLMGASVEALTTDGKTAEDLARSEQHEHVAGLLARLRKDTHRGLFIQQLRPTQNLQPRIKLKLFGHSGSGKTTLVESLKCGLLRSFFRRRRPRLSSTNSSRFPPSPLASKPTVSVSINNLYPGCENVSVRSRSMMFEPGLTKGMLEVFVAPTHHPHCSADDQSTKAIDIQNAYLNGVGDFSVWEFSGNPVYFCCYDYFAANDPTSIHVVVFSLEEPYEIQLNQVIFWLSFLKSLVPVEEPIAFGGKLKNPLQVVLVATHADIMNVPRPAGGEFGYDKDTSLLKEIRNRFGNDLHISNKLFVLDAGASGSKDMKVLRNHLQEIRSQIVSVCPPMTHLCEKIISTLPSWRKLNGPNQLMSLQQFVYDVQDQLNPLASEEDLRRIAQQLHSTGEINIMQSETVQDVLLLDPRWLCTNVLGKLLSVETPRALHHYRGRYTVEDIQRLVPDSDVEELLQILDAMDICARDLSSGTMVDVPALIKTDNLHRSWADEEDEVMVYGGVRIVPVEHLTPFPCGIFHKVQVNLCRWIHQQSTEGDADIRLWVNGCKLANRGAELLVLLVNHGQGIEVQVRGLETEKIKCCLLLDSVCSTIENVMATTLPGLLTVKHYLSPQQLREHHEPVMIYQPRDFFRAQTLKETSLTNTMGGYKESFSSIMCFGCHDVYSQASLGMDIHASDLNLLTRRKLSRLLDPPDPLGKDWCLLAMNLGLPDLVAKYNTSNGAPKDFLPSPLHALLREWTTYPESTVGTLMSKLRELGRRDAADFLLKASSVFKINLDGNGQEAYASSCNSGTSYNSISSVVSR
T1 sequence (Q13177 whole entry): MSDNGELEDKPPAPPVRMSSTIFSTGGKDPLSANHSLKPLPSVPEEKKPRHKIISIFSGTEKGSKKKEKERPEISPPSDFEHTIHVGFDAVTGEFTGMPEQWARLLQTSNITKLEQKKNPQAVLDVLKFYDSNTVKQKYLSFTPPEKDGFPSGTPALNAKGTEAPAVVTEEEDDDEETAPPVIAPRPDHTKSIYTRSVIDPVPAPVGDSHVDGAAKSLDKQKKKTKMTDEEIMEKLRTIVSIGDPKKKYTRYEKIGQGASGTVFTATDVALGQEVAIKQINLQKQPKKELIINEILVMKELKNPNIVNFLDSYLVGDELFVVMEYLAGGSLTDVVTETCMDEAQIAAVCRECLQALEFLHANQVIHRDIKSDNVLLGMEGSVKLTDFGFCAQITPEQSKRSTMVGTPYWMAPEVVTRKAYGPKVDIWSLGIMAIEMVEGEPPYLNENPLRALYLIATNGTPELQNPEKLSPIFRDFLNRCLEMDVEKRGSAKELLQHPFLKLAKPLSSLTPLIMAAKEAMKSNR

`COc1ccc(-c2cc(C(=O)Nc3cc(-c4c(-c5ccc(F)cc5)noc4C(C)C)ccn3)n(CC3NCC(O)C3O)c2)cc1` (stereo not shown) [29d] was tested. Which remaining activity at 1 µM (PAK2) did it give?
The remaining activity at 1 µM was 107%.

And the remaining activity at 1 µM (EPHB1)?
The remaining activity at 1 µM was 108%.

And the remaining activity at 1 µM (FGF-R4)?
The remaining activity at 1 µM was 125%.

And the remaining activity at 1 µM (DAPK1)?
Its remaining activity at 1 µM is 101%.

What about the remaining activity at 1 µM (HIPK4) of the same molecule?
The remaining activity at 1 µM was 91%.

And the remaining activity at 1 µM (p38-alpha)?
The remaining activity at 1 µM was 17%.

What about the remaining activity at 1 µM (NEK6) of the same molecule?
The remaining activity at 1 µM was 94%.

What about the remaining activity at 1 µM (TSF1) of the same molecule?
The remaining activity at 1 µM was 86%.

What about the remaining activity at 1 µM (CDK4/CycD1) of the same molecule?
The remaining activity at 1 µM was 108%.

And the remaining activity at 1 µM (DMPK)?
Its remaining activity at 1 µM is 93%.

And the remaining activity at 1 µM (MYLK3)?
The remaining activity at 1 µM was 87%.

What about the remaining activity at 1 µM (INSR-R) of the same molecule?
The remaining activity at 1 µM was 89%.

And the remaining activity at 1 µM (NEK3)?
Its remaining activity at 1 µM is 96%.

What about the remaining activity at 1 µM (TNK1) of the same molecule?
The remaining activity at 1 µM was 104%.

What about the remaining activity at 1 µM (MAP3K11) of the same molecule?
The remaining activity at 1 µM was 88%.

What about the remaining activity at 1 µM (PRKG1) of the same molecule?
Its remaining activity at 1 µM is 89%.

What about the remaining activity at 1 µM (MEKK3) of the same molecule?
The remaining activity at 1 µM was 104%.

And the remaining activity at 1 µM (FAK aa2-1052)?
Its remaining activity at 1 µM is 120%.

What about the remaining activity at 1 µM (EPHB2) of the same molecule?
The remaining activity at 1 µM was 88%.

And the remaining activity at 1 µM (CAMK1D)?
The remaining activity at 1 µM was 89%.

And the remaining activity at 1 µM (EPHA1)?
Its remaining activity at 1 µM is 120%.

What about the remaining activity at 1 µM (S6K-beta) of the same molecule?
The remaining activity at 1 µM was 96%.

What about the remaining activity at 1 µM (TRK-B) of the same molecule?
The remaining activity at 1 µM was 120%.

And the remaining activity at 1 µM (SRC (GST-HIS-tag))?
Its remaining activity at 1 µM is 125%.

What about the remaining activity at 1 µM (COT) of the same molecule?
The remaining activity at 1 µM was 89%.

— PMC6429214, “Design, Synthesis and Biological Evaluation of Isoxazole-Based CK1 Inhibitors Modified with Chiral Pyrrolidine Scaffolds” (Molecules, 2019)
